Article PMC8552062, “Contributions of UDP-Glucuronosyltransferases to Human Hepatic and Intestinal Metabolism of Ticagrelor and Inhibition of UGTs and Cytochrome P450 Enzymes by Ticagrelor and its Glucuronidated Metabolite” (Frontiers in Pharmacology, 2021)

Columns and labels:
[1] = molecular target: T1, recombinant human UGT1A10 (Homo sapiens, UniProt Q9HAW8); test: Ticagrelor glucuronidation screen, recombinant human UGT1A10; format: in vitro ADME; conditions: 10 μM ticagrelor
T1 construct: purchased BD Gentest; host or cells: baculovirus-infected insect cells
Method: Ticagrelor glucuronidation was investigated in an in vitro incubation system by using HLM, HIM, and recombinant human UGTs. The incubation system consisted of enzyme sources (HLM, HIM, or human recombinant UGTs), various concentrations of ticagrelor (dissolved in 50% methanol, 1% v/v, 1, 2, 5, 10, 20, 50, 100, 200, 500 μM of final concentration), alamethicin (50 μg/mg protein), 5 mM MgCl2, 100 mM tris-HCL buffer (pH 7.4), and 5 mM UDPGA in a total volume of 100 μl. Alamethicin is a pore-forming polypeptide used to activate UGTs in HLM and HIM ([Fisher et al., 2000]). Preliminary studies were conducted to determine the optimal protein concentrations and incubation times. Linear conditions of ticagrelor-O-Glu formation from ticagrelor, i.e., HLM, 0.2 mg of protein/ml and 60 min, HIM, 0.2 mg of protein/ml and 60 min, and recombinant human UGTs, 0.2 mg of protein/ml and 60 min were selected. The incubation mixture without UDPGA was placed on ice for 15 min to activate UGT by alamethicin. After pre-incubation for 5 min at 37°C, the reactions were started by the addition of UDPGA. After another 60 min of incubation at 37°C, the reaction was terminated by adding 100 μl of acetonitrile containing internal standard (diazepam). The mixture vortexed for 2 min and then centrifuged at 14,000 rpm for 10 min at 4°C. […]

[2] = design: method as in Husted et al., 2006; conditions: humans, 100 mg b.i.d.; ref Husted et al., 2006; cited from earlier work

T1 sequence (Q9HAW8 26-530): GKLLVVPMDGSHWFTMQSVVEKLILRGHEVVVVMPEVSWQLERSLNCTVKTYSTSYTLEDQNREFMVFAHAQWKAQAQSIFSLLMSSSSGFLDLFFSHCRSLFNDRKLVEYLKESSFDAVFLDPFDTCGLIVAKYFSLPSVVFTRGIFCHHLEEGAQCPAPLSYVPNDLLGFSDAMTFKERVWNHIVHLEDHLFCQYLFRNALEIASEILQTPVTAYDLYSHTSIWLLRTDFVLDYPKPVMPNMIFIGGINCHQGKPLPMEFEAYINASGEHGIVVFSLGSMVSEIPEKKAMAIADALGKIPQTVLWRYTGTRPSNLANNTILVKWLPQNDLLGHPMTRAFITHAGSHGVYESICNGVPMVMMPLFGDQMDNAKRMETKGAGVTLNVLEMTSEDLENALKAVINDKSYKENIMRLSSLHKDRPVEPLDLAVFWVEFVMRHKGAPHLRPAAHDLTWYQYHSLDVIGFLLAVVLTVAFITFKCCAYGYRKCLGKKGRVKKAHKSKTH

glucuronidation activity for ticagrelor [1]: no glucuronidation activities
Compound: CCCSc1nc(N[C@@H]2C[C@H]2c2ccc(F)c(F)c2)c2nnn([C@@H]3C[C@H](OCCO)[C@@H](O)[C@H]3O)c2n1 [Ticagrelor]
steady-state maximal plasma concentration (Cmax) [2]: 810 ng/mL
